This note sets out measurements from US10633353B2, “Polymerizable compound, composition, polymer, optically anisotropic body, liquid crystal display element, and organic EL display” (DIC Corporation, priority 2014, dated 2020).

The series can be described thus: Preservation stability of the coating liquid. The format is physicochemical. As to conditions: coating liquid stored for 2 months shielded from light at 0° C.; appearance and GPC. As to the method: The preservation stability of the coating liquid was evaluated on a scale of A to E on the basis of the state of the coating liquid that was stored for 2 months under a condition where the coating liquid was shielded from light at 0° C.
A: No visual change in the appearance of the coating liquid was confirmed. A GPC analysis of the coating liquid confirmed that the change in the composition of the coating liquid was 1% or less.
B: No visual change in the appearance of the coating liquid was confirmed. A GPC analysis of the coating liquid confirmed that the change in the composition of the coating liquid was 2% or less.
C: A visual change in the appearance of the coating liquid was confirmed; a trace amount of insoluble components were confirmed, or a GPC analysis of the coating liquid confirmed that the change in the composition of the coating liquid was 3% or less.
D: A visual change in the appearance of the coating liquid was confirmed; insoluble components were confirmed. The ratio of the weight of the insoluble components to the total solid content was 5% or less.
E: A large amount of insoluble components were visually confirmed. The ratio of the weight of the insoluble components to the total solid content was 5% or more.
Turning to `C=CC(=O)OCCCCCCOc1ccc(C(=O)OCCc2ccc(CCOC(=O)c3ccc(OCCCCCCOC(=O)C=C)cc3)c(/C=N/Nc3nc4ccccc4s3)c2)cc1` [1-c-12], the Preservation stability entry is “A (No visual change in the appearance of the coating liquid was confirmed. A GPC analysis of the coating liquid confirmed that the change in the composition of the coating liquid was 1% or less.)”. Next, `C=CC(=O)OCCCOc1ccc(OC(=O)C2CCC(C(=O)OCCc3ccc(OC(=O)C4CCC(C(=O)Oc5ccc(OCCCOC(=O)C=C)cc5)CC4)c(C=NNc4nc5ccccc5s4)c3)CC2)cc1` (stereo not shown) [1-c-13]: “A (No visual change in the appearance of the coating liquid was confirmed. A GPC analysis of the coating liquid confirmed that the change in the composition of the coating liquid was 1% or less.)”.

As for `C=CC(=O)OCCCCOc1ccc(OC(=O)C2CCC(C(=O)OCCc3ccc(OC(=O)C4CCC(C(=O)Oc5ccc(OCCCCOC(=O)C=C)cc5)CC4)c(C=NNc4nc5ccccc5s4)c3)CC2)cc1` (stereo not shown) [1-c-14], the Preservation stability result is given as “A (No visual change in the appearance of the coating liquid was confirmed. A GPC analysis of the coating liquid confirmed that the change in the composition of the coating liquid was 1% or less.)”. For the molecule `C=CC(=O)OCCCCCOc1ccc(OC(=O)C2CCC(C(=O)OCCc3ccc(OC(=O)C4CCC(C(=O)Oc5ccc(OCCCCCOC(=O)C=C)cc5)CC4)c(C=NNc4nc5ccccc5s4)c3)CC2)cc1` (stereo not shown) [1-c-15], the Preservation stability entry is on record as “A (No visual change in the appearance of the coating liquid was confirmed. A GPC analysis of the coating liquid confirmed that the change in the composition of the coating liquid was 1% or less.)”. In the case of `C=CC(=O)OCCCOc1ccc(C(=O)OCCc2ccc(OC(=O)c3ccc(OCCCOC(=O)C=C)cc3)c(/C=N/Nc3nc4cc([N+](=O)[O-])ccc4s3)c2)cc1` [1-c-23], the Preservation stability result was “B (No visual change in the appearance of the coating liquid was confirmed. A GPC analysis of the coating liquid confirmed that the change in the composition of the coating liquid was 2% or less.)”. Under `C=CC(=O)OCCCOc1ccc(C(=O)OCCc2ccc(OC(=O)c3ccc(OCCCOC(=O)C=C)cc3)c(/C=N/Nc3nc4cc(Cl)ccc4s3)c2)cc1` [1-c-24] stands “B (No visual change in the appearance of the coating liquid was confirmed. A GPC analysis of the coating liquid confirmed that the change in the composition of the coating liquid was 2% or less.)”; under `C=CC(=O)OCCCOc1ccc(C(=O)OCCc2ccc(OC(=O)c3ccc(OCCCOC(=O)C=C)cc3)c(/C=N/Nc3nc4cc(C#N)ccc4s3)c2)cc1` [1-c-25], “B (No visual change in the appearance of the coating liquid was confirmed. A GPC analysis of the coating liquid confirmed that the change in the composition of the coating liquid was 2% or less.)”.

Regarding `C=CC(=O)OCCCOc1ccc(C(=O)OCCc2ccc(OC(=O)c3ccc(OCCCOC(=O)C=C)cc3)c(/C=N/Nc3nc4cc(CCC)ccc4s3)c2)cc1` [1-c-26], the Preservation stability result is given as “A (No visual change in the appearance of the coating liquid was confirmed. A GPC analysis of the coating liquid confirmed that the change in the composition of the coating liquid was 1% or less.)”. Under `C=CC(=O)OCCCCOc1ccc(C(=O)OCCc2ccc(OC(=O)c3ccc(OCCCCOC(=O)CC)cc3)c(/C=N/Nc3cc4ccccc4[nH]3)c2)cc1` [1-c-28] stands “B (No visual change in the appearance of the coating liquid was confirmed. A GPC analysis of the coating liquid confirmed that the change in the composition of the coating liquid was 2% or less.)”; under `C=CC(=O)OCCCCCOc1ccc(C(=O)OCCc2ccc(OC(=O)c3ccc(OCCCCCOC(=O)C=C)cc3)c(/C=N/Nc3nc4cc(O)c([N+](=O)[O-])cc4[nH]3)c2)cc1` [1-c-29], “B (No visual change in the appearance of the coating liquid was confirmed. A GPC analysis of the coating liquid confirmed that the change in the composition of the coating liquid was 2% or less.)”; under `C=CC(=O)OCCCCCCOc1ccc(C(=O)OCCc2ccc(OC(=O)c3ccc(OCCCCCCOC(=O)C=C)cc3)c(/C=N/Nc3nc4cc([N+](=O)[O-])ccc4s3)c2)cc1` [1-c-30], “B (No visual change in the appearance of the coating liquid was confirmed. A GPC analysis of the coating liquid confirmed that the change in the composition of the coating liquid was 2% or less.)”.

For the molecule `C=CC(=O)OCCCCCCOc1ccc(C(=O)OCCc2ccc(OC(=O)c3ccc(OCCCCCCOC(=O)C=C)cc3)c(/C=N/Nc3ccc(C#Cc4ccccc4)cc3)c2)cc1` [1-c-31], the Preservation stability entry is “B (No visual change in the appearance of the coating liquid was confirmed. A GPC analysis of the coating liquid confirmed that the change in the composition of the coating liquid was 2% or less.)”. Under `C=CC(=O)OCCCCCCOc1ccc(C(=O)OCCc2ccc(OC(=O)c3ccc(OCCCCCCOC(=O)C=C)cc3)c(/C=N/Nc3ccc4ccccc4c3)c2)cc1` [1-c-32] stands “B (No visual change in the appearance of the coating liquid was confirmed. A GPC analysis of the coating liquid confirmed that the change in the composition of the coating liquid was 2% or less.)”; under `C=CC(=O)OCCCCCCOc1ccc(C(=O)OCCc2ccc(OC(=O)c3ccc(OCCCCCCOC(=O)C=C)cc3)c(/C=N/Nc3nc4ccc5ccccc5c4s3)c2)cc1` [1-c-33], “B (No visual change in the appearance of the coating liquid was confirmed. A GPC analysis of the coating liquid confirmed that the change in the composition of the coating liquid was 2% or less.)”; under `C=CC(=O)OCCCCCCOc1ccc(C(=O)OCCc2ccc(OC(=O)c3ccc(OCCCCCCOC(=O)C=C)cc3)c(/C=N/Nc3nc(-c4ccc5ccccc5c4)cs3)c2)cc1` [1-c-34], “B (No visual change in the appearance of the coating liquid was confirmed. A GPC analysis of the coating liquid confirmed that the change in the composition of the coating liquid was 2% or less.)”.

In the case of `C=CC(=O)OCCCCOc1ccc(C(=O)OCCc2ccc(OC(=O)c3ccc(OCCCCOC(=O)C=C)cc3)c(/C=N/N(CCCCCC)c3nc4ccc5ccccc5c4s3)c2)cc1` [1-c-40], the Preservation stability result is listed as “A (No visual change in the appearance of the coating liquid was confirmed. A GPC analysis of the coating liquid confirmed that the change in the composition of the coating liquid was 1% or less.)”.

For `C=CC(=O)OCCCOc1ccc(C(=O)OCCc2ccc(CCOC(=O)c3ccc(OCCCOC(=O)C=C)cc3)c(/C=N/N(C(=O)C=C)c3nc(-c4ccc5ccccc5c4)cs3)c2)cc1` [1-c-41], the Preservation stability result is recorded as “A (No visual change in the appearance of the coating liquid was confirmed. A GPC analysis of the coating liquid confirmed that the change in the composition of the coating liquid was 1% or less.)”.

For `C=CC(=O)OCCCCCCOc1ccc(OC(=O)C2CCC(C(=O)OCCc3ccc(OC(=O)C4CCC(C(=O)Oc5ccc(OCCCCCCOC(=O)C=C)cc5)CC4)c(/C=N/Nc4cccc5ccccc45)c3)CC2)cc1` (stereo not shown) [1-c-42], the Preservation stability entry is given as “B (No visual change in the appearance of the coating liquid was confirmed. A GPC analysis of the coating liquid confirmed that the change in the composition of the coating liquid was 2% or less.)”. Under `C=CC(=O)OCCCCCCOc1ccc(/C=C/C(=O)Oc2ccc(OC(=O)/C=C/c3ccc(OCCCCCCOC(=O)C=C)cc3)c(/C=N/Nc3nc4ccccc4s3)c2)cc1` [1-c-43] stands “B (No visual change in the appearance of the coating liquid was confirmed. A GPC analysis of the coating liquid confirmed that the change in the composition of the coating liquid was 2% or less.)”; under `C=CC(=O)OCCCOc1ccc(/C=C/C(=O)Oc2ccc(OC(=O)/C=C/c3ccc(OCCCOC(=O)C=C)cc3)c(/C=N/Nc3nc4ccccc4s3)c2)cc1` [1-c-44], “B (No visual change in the appearance of the coating liquid was confirmed. A GPC analysis of the coating liquid confirmed that the change in the composition of the coating liquid was 2% or less.)”. For `C=CC(=O)OCCCCOc1ccc(/C=C/C(=O)Oc2ccc(OC(=O)/C=C/c3ccc(OCCCCOC(=O)C=C)cc3)c(/C=N/Nc3nc4ccccc4s3)c2)cc1` [1-c-45], the Preservation stability result is recorded as “B (No visual change in the appearance of the coating liquid was confirmed. A GPC analysis of the coating liquid confirmed that the change in the composition of the coating liquid was 2% or less.)”. As for `C=CC(=O)OCCCOc1ccc(/C=C/C(=O)Oc2ccc(OC(=O)/C=C/c3ccc(OCCCOC(=O)C=C)c(OC)c3)c(/C=N/Nc3nc4ccccc4s3)c2)cc1OC` [1-c-46], the Preservation stability result was “B (No visual change in the appearance of the coating liquid was confirmed. A GPC analysis of the coating liquid confirmed that the change in the composition of the coating liquid was 2% or less.)”. Turning to `C=CC(=O)OCCCOc1ccc(/C=C/C(=O)Oc2ccc(OC(=O)/C=C/c3ccc(OCCCOC(=O)C=C)c(Cl)c3)c(/C=N/Nc3nc4ccccc4s3)c2)cc1Cl` [1-c-47], the Preservation stability entry is “B (No visual change in the appearance of the coating liquid was confirmed. A GPC analysis of the coating liquid confirmed that the change in the composition of the coating liquid was 2% or less.)”. Under `C=C(C)C(=O)OCCCOc1ccc(/C=C/C(=O)Oc2ccc(OC(=O)/C=C/c3ccc(OCCCOC(=O)C(=C)C)cc3)c(/C=N/Nc3nc4ccccc4s3)c2)cc1` [1-c-48] stands “B (No visual change in the appearance of the coating liquid was confirmed. A GPC analysis of the coating liquid confirmed that the change in the composition of the coating liquid was 2% or less.)”; under `C=CC(=O)OCCCOc1ccc(CCC(=O)Oc2ccc(OC(=O)CCc3ccc(OCCCOC(=O)C=C)cc3)c(/C=N/Nc3nc4ccccc4s3)c2)cc1` [1-c-49], “A (No visual change in the appearance of the coating liquid was confirmed. A GPC analysis of the coating liquid confirmed that the change in the composition of the coating liquid was 1% or less.)”.
